Experimental data: paper PMC10290954 (Nature Metabolism, 2023)

Tests used:
[1] = molecular target: T1, mouse GIP receptor (mGIPR), cloned, in membranes of HEK cells (mouse) (UniProt Q0P543)
T1 sequence: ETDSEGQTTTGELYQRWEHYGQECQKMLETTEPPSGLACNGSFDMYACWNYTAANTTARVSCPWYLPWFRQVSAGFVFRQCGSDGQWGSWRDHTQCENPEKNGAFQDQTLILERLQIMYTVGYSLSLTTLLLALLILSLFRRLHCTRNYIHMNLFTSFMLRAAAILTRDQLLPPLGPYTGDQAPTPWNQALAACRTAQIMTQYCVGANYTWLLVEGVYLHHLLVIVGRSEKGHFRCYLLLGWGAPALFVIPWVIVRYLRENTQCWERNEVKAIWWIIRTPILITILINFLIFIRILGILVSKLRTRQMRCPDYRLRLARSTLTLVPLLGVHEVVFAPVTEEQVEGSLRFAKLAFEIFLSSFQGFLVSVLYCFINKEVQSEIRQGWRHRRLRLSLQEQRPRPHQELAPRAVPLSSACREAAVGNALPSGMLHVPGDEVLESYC

[2] = molecular target: T2, mouse GIP receptor (mGIPR), transiently expressed in HEK293T cells for BRET (mouse) (UniProt Q0P543)
T2 sequence: T1 sequence

human islets = assay: Human islet perifusion, insulin secretion with Ex9 or hGIP(3-30) (Extended Data Fig. 2); assay type: cell-based; conditions: two donor sets, 30 nM tirzepatide, antagonist 1 μM
Method: Human islets were obtained from both the Alberta Diabetes Institute and the Integrated Islet Distribution Program. All islets were obtained from consenting donors. Details for the general perifusion protocol have been previously described[21] and are similar to the mouse perifusion protocol. […] Each set of human islets consisted of n = 3 for each condition. These were averaged to generate a single data point (Fig. 2c). Insulin values were measured with a Lumit insulin immunoassay (Promega) using an EnVision plate reader (PerkinElmer). For the glucagon secretion experiments (Fig. 3), the average glucagon values were calculated during control (minutes 35–45) and stimulated (minutes 55–65) conditions. All peptides were used at 30 nM concentrations based on previous work[16]. Amino acids were used at concentrations of 3 mM based on previous work[11]. Glucagon was measured with a Lumit Glucagon Immunoassay Kit (cat. no. CS3037A02; Promega) using an EnVision plate reader (PerkinElmer). Somatostatin was measured with an ELISA assay (cat. no. FEK-060-14; Phoenix Pharmaceuticals). All data are expressed as the measured concentration relative to both flow rate and islet number (insulin, ng ml^–1 × (1/200 µl ml^–1) × (1/75 islets); glucagon, pM × (1/200 µl ml^–1) × (1/75 islets); somatostatin, pg ml^–1 × (1/200 µl ml^–1) × (1/75 islets))[49]. Human pancreatic islets and pancreas tissue were isolated from deceased donors under ethical approval from the Human Research Ethics Board of the University of Alberta (Pro00013094, Pro00001754) and obtained from the NIDDK-funded Integrated Islet Distribution Program (IIDP) (RRID: SCR _014387). All donors’ families gave informed consent for the use of pancreatic tissue in research and were not financially compensated.
The integrated area under the curve (iAUC) was calculated for both glucose and tirzepatide stimulated insulin secretion using the value of the first time point as the baseline. All values are mean + /- SEM, n = 3/group. A one-way ANOVA with Tukey’s posthoc test was used. Source data

mouse GIP receptor [3] = molecular target: T3, mouse GIP receptor (Mus musculus, UniProt Q0P543); assay: [35S]GTPγS binding, mouse GIPR; assay type: biochemical; set-up: expressed in transfected cells; host or cells: low-receptor-density clonal cell lines; conditions: mGIPR GTPgS
T3 sequence (Q0P543 19-460): T1 sequence
Method: (§1) Methods for these assays have been previously described. In brief, for GTPγs binding, the potency of ligands to stimulate receptor-dependent elevation of the GTPγS-bound Gαs subunit was determined using membrane preparations from low-receptor-density receptor clonal cell lines. Reactions were incubated for 30 min at room temperature in white, clear-bottom microtiter plates, and per cent of the maximal response was calculated using control wells as a reference. Relative EC50 values were derived by nonlinear regression analysis using the per cent response versus the concentration of ligand and fitted to a four-parameter logistic equation using GraphPad Prism 7 software. For cAMP assays, kinetic cAMP assays were performed in low-density receptor cell clones transfected with the Glosensor 22 F vector (Promega). Cells were equilibrated for 5–20 min and then 20 μl of 10× ligand was added and a luminescence time course was collected.

mouse GIP receptor [4] = molecular target: T3, mouse GIP receptor; assay: cAMP generation (Glosensor), mouse GIPR; assay type: cell-based; set-up: expressed in transfected cells; host or cells: low-receptor-density clonal cell lines; conditions: for HillSlope / Span (four parameter fit) / Top (four parameter fit) / Bottom (four parameter fit): mGIP-R HEK-293 cells, cAMP formation; for HillSlope: four parameter fit - normalized; for Span (four parameter fit) / Top (four parameter fit) / Bottom (four parameter fit): max signal = 100 nM human GIP(1-42)NH2, normalized
Method: as §1, with “collected. Ligand (10×) was titrated by manual serial dilution in DMSO followed by step-down into assay buffer.” for “collected.”

Q: With “human glucose-dependent insulinotropic polypeptide (hGIP) (from UniProt P09681 52-93)” as the compound, how does the [35S]GTPγS binding (G-protein activation), EC50 [1] read?
A: The [35S]GTPγS binding (G-protein activation), EC50 was 0.735 nM.

Q: And the [35S]GTPγS binding (G-protein activation), Emax [1]?
A: The [35S]GTPγS binding (G-protein activation), Emax was 96.7%.

Q: And the cAMP generation, EC50 [1]?
A: The cAMP generation, EC50 was 0.046 nM.

Q: And the Gs recruitment (ligand-induced BRET), EC50 [2]?
A: Its Gs recruitment (ligand-induced BRET), EC50 is 153 nM.

Q: And the Gs recruitment (ligand-induced BRET), Emax [2]?
A: Its Gs recruitment (ligand-induced BRET), Emax is 101%.

Q: With “hGIP(3-30): a different GIPR antagonist that has been previously characterized (ref 27) (EGTFISDYSIAMDKIHQQDFVNWLLAQK; Gastric inhibitory polypeptide; UniProt P09681 54-81, looked up, fragment)” as the compound, how does the “Effect on tirzepatide-stimulated insulin secretion” value (human islets) read?
A: The value was “A similar outcome”.

Q: Which results are given for `CC[C@H](C)[C@H](NC(=O)[C@H](CO)NC(=O)[C@H](Cc1ccc(O)cc1)NC(=O)[C@H](CC(=O)O)NC(=O)[C@H](CO)NC(=O)[C@@H](NC(=O)[C@H](Cc1ccccc1)NC(=O)[C@@H](NC(=O)CNC(=O)[C@H](CCC(=O)O)NC(=O)[C@H](C)NC(=O)[C@@H](N)Cc1ccc(O)cc1)[C@@H](C)O)[C@@H](C)CC)C(=O)N[C@@H](C)C(=O)N[C@@H](CCSC)C(=O)N[C@@H](CC(=O)O)C(=O)N[C@@H](CCCCN)C(=O)N[C@H](C(=O)N[C@@H](Cc1c[nH]cn1)C(=O)N[C@@H](CCC(N)=O)C(=O)N[C@@H](CCC(N)=O)C(=O)N[C@@H](CC(=O)O)C(=O)N[C@@H](Cc1ccccc1)C(=O)N[C@H](C(=O)N[C@@H](CC(N)=O)C(=O)N[C@@H](Cc1c[nH]c2ccccc12)C(=O)N[C@@H](CC(C)C)C(=O)N[C@@H](CC(C)C)C(=O)N[C@@H](C)C(=O)N[C@@H](CCC(N)=O)C(=O)N[C@@H](CCCCN)C(=O)NCC(=O)N[C@@H](CCCCN)C(=O)N[C@@H](CCCCN)C(=O)N[C@@H](CC(N)=O)C(=O)N[C@@H](CC(=O)O)C(=O)N[C@@H](Cc1c[nH]c2ccccc12)C(=O)N[C@@H](CCCCN)C(=O)N[C@@H](Cc1c[nH]cn1)C(=O)N[C@@H](CC(N)=O)C(=O)N[C@H](C(=O)N[C@H](C(=O)N[C@@H](CCC(N)=O)C(N)=O)[C@@H](C)O)[C@@H](C)CC)C(C)C)[C@@H](C)CC` [hGIP]?
A: Emax (mouse GIP receptor [3]; run of 2019-03-15): 91.9%; Emax (mouse GIP receptor [3]; run of 2019-04-02): 91.5%; Emax (mouse GIP receptor [3]; run of 2019-06-28): 93.8%; Emax (mouse GIP receptor [3]; run of 2022-02-17): 93.1%

Q: For `CC[C@H](C)[C@H](NC(=O)[C@H](CO)NC(=O)[C@H](Cc1ccc(O)cc1)NC(=O)[C@H](CC(=O)O)NC(=O)[C@H](CO)NC(=O)[C@@H](NC(=O)[C@H](Cc1ccccc1)NC(=O)[C@@H](NC(=O)CNC(=O)[C@H](CCC(=O)O)NC(=O)[C@H](C)NC(=O)[C@@H](N)Cc1ccc(O)cc1)[C@@H](C)O)[C@@H](C)CC)C(=O)N[C@@H](C)C(=O)N[C@@H](CCSC)C(=O)N[C@@H](CC(=O)O)C(=O)N[C@@H](CCCCN)C(=O)N[C@H](C(=O)N[C@@H](CCCNC(=N)N)C(=O)N[C@@H](CCC(N)=O)C(=O)N[C@@H](CCC(N)=O)C(=O)N[C@@H](CC(=O)O)C(=O)N[C@@H](Cc1ccccc1)C(=O)N[C@H](C(=O)N[C@@H](CC(N)=O)C(=O)N[C@@H](Cc1c[nH]c2ccccc12)C(=O)N[C@@H](CC(C)C)C(=O)N[C@@H](CC(C)C)C(=O)N[C@@H](C)C(=O)N[C@@H](CCC(N)=O)C(=O)N[C@@H](CCCNC(=N)N)C(=O)NCC(=O)N[C@@H](CCCCN)C(=O)N[C@@H](CCCCN)C(=O)N[C@@H](CO)C(=O)N[C@@H](CC(=O)O)C(=O)N[C@@H](Cc1c[nH]c2ccccc12)C(=O)N[C@@H](CCCCN)C(=O)N[C@@H](Cc1c[nH]cn1)C(=O)N[C@@H](CC(N)=O)C(=O)N[C@H](C(=O)N[C@H](C(=O)N[C@@H](CCC(N)=O)C(N)=O)[C@@H](C)O)[C@@H](C)CC)C(C)C)[C@@H](C)CC` [mouse GIP(1-42)NH2], which Emax (mouse GIP receptor [4]; HEK293, read-out: Arthmetic Mean Emax) is on record?
A: The Emax was 103%.

Q: And the HillSlope (mouse GIP receptor [4]; run 2022-10-04, replicate 1)?
A: Its HillSlope is 0.8118.

Q: And the HillSlope (mouse GIP receptor [4]; run 2022-10-04, replicate 2)?
A: Its HillSlope is 0.9861.

Q: What about the HillSlope (mouse GIP receptor [4]; run 2022-10-06, replicate 1) of the same compound?
A: Its HillSlope is 0.7723.

Q: What about the HillSlope (mouse GIP receptor [4]; run 2022-10-06, replicate 2) of the same compound?
A: The HillSlope was 0.9288.

Q: And the HillSlope (mouse GIP receptor [4]; run 2022-10-12)?
A: The HillSlope was 1.095.

Q: What about the “Span (four parameter fit)” value (mouse GIP receptor [4]; run 2022-10-04, replicate 1) of the same compound?
A: The value was 112.9 Percent Max-Min.

Q: And the “Top (four parameter fit)” value (mouse GIP receptor [4]; run 2022-10-04, replicate 1)?
A: The value was 112.9 Percent Max-Min.

Q: And the “Span (four parameter fit)” value (mouse GIP receptor [4]; run 2022-10-04, replicate 2)?
A: The value was 111.3 Percent Max-Min.

Q: And the “Top (four parameter fit)” value (mouse GIP receptor [4]; run 2022-10-04, replicate 2)?
A: Its value is 106.4 Percent Max-Min.

Q: What about the “Bottom (four parameter fit)” value (mouse GIP receptor [4]; run 2022-10-06, replicate 1) of the same compound?
A: Its value is -5.431 Percent Max-Min.

Q: What about the “Span (four parameter fit)” value (mouse GIP receptor [4]; run 2022-10-06, replicate 1) of the same compound?
A: Its value is 105.7 Percent Max-Min.

Q: What about the “Top (four parameter fit)” value (mouse GIP receptor [4]; run 2022-10-06, replicate 1) of the same compound?
A: The value was 100.3 Percent Max-Min.

Q: What about the “Bottom (four parameter fit)” value (mouse GIP receptor [4]; run 2022-10-06, replicate 2) of the same compound?
A: The value was -2.463 Percent Max-Min.

Q: And the “Span (four parameter fit)” value (mouse GIP receptor [4]; run 2022-10-06, replicate 2)?
A: The value was 102 Percent Max-Min.

Q: And the “Top (four parameter fit)” value (mouse GIP receptor [4]; run 2022-10-06, replicate 2)?
A: Its value is 99.51 Percent Max-Min.

Q: And the “Bottom (four parameter fit)” value (mouse GIP receptor [4]; run 2022-10-12)?
A: The value was -1.282 Percent Max-Min.

Q: And the “Span (four parameter fit)” value (mouse GIP receptor [4]; run 2022-10-12)?
A: The value was 97.15 Percent Max-Min.

Q: And the “Top (four parameter fit)” value (mouse GIP receptor [4]; run 2022-10-12)?
A: The value was 95.87 Percent Max-Min.
